We go through 35 molecules from patent EP2272817A1, “PAI-1 INHIBITOR” (Institute of Medicinal Molecular Design, Inc., priority 2008, dated 2009).

Some results are limits rather than exact numbers.

This assay deals with recombinant human PAI-1 (Homo sapiens, UniProt P05121). The experiment in a line: Test Example 2: Human PAI-1 Inhibitory Activity (pH 7.4 HEPES buffer, 10 minutes incubation with two-chain tPA). In kind it is biochemical. Conditions: read-out: Inhibition Rate of PAI-1 Activity (%). Details: purchased Molecular Innovations, Inc. As for the experimental part:
0.1 M HEPES, 0.1 M NaCl. 1 mM EDTA. 0.1 % Polyethylene glycol 8,000 (Hampton Research Corporation),
2 mM Dimethyldecylphoshine oxide [Apo-10] (Fluka Corporation)

Chain of recombinant human PAI-1 (P05121 24-402): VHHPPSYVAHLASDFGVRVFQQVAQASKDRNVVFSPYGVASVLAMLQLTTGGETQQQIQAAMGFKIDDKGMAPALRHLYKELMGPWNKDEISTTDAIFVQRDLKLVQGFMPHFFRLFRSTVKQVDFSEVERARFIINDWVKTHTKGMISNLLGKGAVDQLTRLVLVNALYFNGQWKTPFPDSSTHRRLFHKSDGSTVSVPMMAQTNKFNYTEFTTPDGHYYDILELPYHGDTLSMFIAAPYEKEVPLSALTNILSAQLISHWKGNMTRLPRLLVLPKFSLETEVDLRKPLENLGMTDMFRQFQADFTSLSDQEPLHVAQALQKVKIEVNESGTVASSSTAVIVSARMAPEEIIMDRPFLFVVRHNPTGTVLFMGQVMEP

Turning to `CC(C)(C)c1ccc(Oc2cc(-c3ccc(C(C)(C)C)cc3)ccc2/C=C/C(=O)O)cc1` [Compound 495], the inhibition at 0.1 µM is 8%, the inhibition at 0.3 µM is 64%, the inhibition at 1 µM is 98% and the inhibition at 3 µM was > 99%.

In the case of `Cc1cc(C)cc(-c2ccc(/C=C/C(=O)O)c(Oc3ccc(C(C)(C)C)cc3)c2)c1` [Compound 496], the inhibition at 0.1 µM turned out to be 4%, the inhibition at 0.3 µM was determined as 9%, the inhibition at 1 µM turned out to be 85% and the inhibition at 3 µM is > 99%.

For the molecule `CC(C)(C)c1ccc(Oc2cc(-c3ccc(C(C)(C)C)cc3)ccc2CCC(=O)O)cc1` [Compound 497], the inhibition at 0.1 µM amounted to 3%, the inhibition at 0.3 µM turned out to be 24%, the inhibition at 1 µM is > 99% and the inhibition at 3 µM is > 99%.

Take `Cc1cc(C)cc(-c2ccc(CCC(=O)O)c(Oc3ccc(C(C)(C)C)cc3)c2)c1` [Compound 498]: the inhibition at 0.1 µM was found to be 1%, the inhibition at 0.3 µM was determined as 4%, the inhibition at 1 µM came to 44% and the inhibition at 3 µM is > 99%.

For `Cc1cc(C)cc(Oc2cc(-c3ccc(C(C)(C)C)cc3)ccc2CCC(=O)O)c1` [Compound 499], the inhibition at 0.1 µM is 15%, the inhibition at 0.3 µM worked out at 14%, the inhibition at 1 µM was 77% and the inhibition at 3 µM amounted to 98%.

As for `CC(Oc1cc(-c2ccc(OC(F)(F)F)cc2)ccc1/C=C/C(=O)O)c1ccccc1` (centres unmarked) [Compound 500], the inhibition at 0.1 µM turned out to be 19%, the inhibition at 0.3 µM stood at 14%, the inhibition at 1 µM was 25% and the inhibition at 3 µM worked out at 80%.

Regarding `CC(Oc1cc(-c2ccc(OC(F)(F)F)cc2)ccc1CCC(=O)O)c1ccccc1` (centres unmarked) [Compound 501], the inhibition at 0.1 µM stood at 12%, the inhibition at 0.3 µM was determined as 0%, the inhibition at 1 µM was found to be 12% and the inhibition at 3 µM amounted to 83%.

On to `CC(C)(C)c1ccc(Oc2cc(-c3cccc(OC(F)(F)F)c3)ccc2/C=C/C(=O)O)cc1` [Compound 503], for which the inhibition at 0.1 µM stood at 13%, the inhibition at 0.3 µM came out at 27%, the inhibition at 1 µM came out at 97% and the inhibition at 3 µM was found to be 93%.

Turning to `CC(C)(C)c1ccc(Oc2cc(-c3cccc(OC(F)(F)F)c3)ccc2CCC(=O)O)cc1` [Compound 504], the inhibition at 0.1 µM came to 13%, the inhibition at 0.3 µM came to 26%, the inhibition at 1 µM stood at 91% and the inhibition at 3 µM was > 99%.

Consider `CCCCc1ccc(-c2ccc(Oc3ccc(C(C)(C)C)cc3)c(OCC(=O)O)c2)cc1` [Compound 505], for which the inhibition at 0.1 µM was 0%, the inhibition at 0.3 µM was found to be 33%, the inhibition at 1 µM was > 99% and the inhibition at 3 µM was > 99%.

`O=C(O)/C=C/c1ccc(-c2ccc(OC(F)(F)F)cc2)cc1OC(c1ccccc1)c1ccccc1` [Compound 506]: the inhibition at 0.1 µM amounted to 2%, the inhibition at 0.3 µM was 9%, the inhibition at 1 µM is 78% and the inhibition at 3 µM was > 99%.

Turning to `O=C(O)CCc1ccc(-c2ccc(OC(F)(F)F)cc2)cc1OC(c1ccccc1)c1ccccc1` [Compound 507], the inhibition at 0.1 µM was determined as 6%, the inhibition at 0.3 µM was 8%, the inhibition at 1 µM is 49% and the inhibition at 3 µM is > 99%.

With `O=C(O)CCc1ccc(-c2ccc(OC(F)(F)F)cc2)cc1OCCCSc1ccccc1` [Compound 508], the inhibition at 0.1 µM turned out to be 18%, the inhibition at 0.3 µM was 9%, the inhibition at 1 µM turned out to be 48% and the inhibition at 3 µM is 98%.

As for `CC(C)c1ccc(Oc2cc(-c3ccc(OC(F)(F)F)cc3)ccc2/C=C/C(=O)O)cc1` [Compound 509], the inhibition at 0.1 µM was determined as 1%, the inhibition at 0.3 µM amounted to 22%, the inhibition at 1 µM was determined as 96% and the inhibition at 3 µM was > 99%.

Regarding `CC(C)c1ccc(Oc2cc(-c3ccc(OC(F)(F)F)cc3)ccc2CCC(=O)O)cc1` [Compound 510], the inhibition at 0.1 µM was determined as 0%, the inhibition at 0.3 µM turned out to be 8%, the inhibition at 1 µM stood at 84% and the inhibition at 3 µM was > 99%.

As for `CCCCc1ccc(Oc2cc(-c3ccc(OC(F)(F)F)cc3)ccc2/C=C/C(=O)O)cc1` [Compound 511], the inhibition at 0.1 µM was determined as 11%, the inhibition at 0.3 µM was determined as 68%, the inhibition at 1 µM was > 99% and the inhibition at 3 µM was > 99%.

For `CCCCc1ccc(Oc2cc(-c3ccc(OC(F)(F)F)cc3)ccc2CCC(=O)O)cc1` [Compound 512], the inhibition at 0.1 µM was found to be 18%, the inhibition at 0.3 µM worked out at 41%, the inhibition at 1 µM stood at 96% and the inhibition at 3 µM came out at 98%.

Turning to `CC(C)c1ccccc1Oc1cc(-c2ccc(OC(F)(F)F)cc2)ccc1OCC(=O)O` [Compound 513], the inhibition at 0.1 µM turned out to be 17%, the inhibition at 0.3 µM was found to be 7%, the inhibition at 1 µM was 69% and the inhibition at 3 µM is > 99%.

For the molecule `CC(C)(C)c1cccc(Oc2cc(-c3cccc(OC(F)(F)F)c3)ccc2/C=C/C(=O)O)c1` [Compound 514], the inhibition at 0.1 µM amounted to 21%, the inhibition at 0.3 µM is 22%, the inhibition at 1 µM worked out at 96% and the inhibition at 3 µM is > 99%.

As for `CC(C)(C)c1cccc(Oc2cc(-c3cccc(OC(F)(F)F)c3)ccc2CCC(=O)O)c1` [Compound 515], the inhibition at 0.1 µM came out at 12%, the inhibition at 0.3 µM was determined as 16%, the inhibition at 1 µM was found to be 86% and the inhibition at 3 µM was > 99%.

As for `CC(C)c1ccc(Sc2cc(-c3ccc(OC(F)(F)F)cc3)ccc2/C=C/C(=O)O)cc1` [Compound 516], the inhibition at 0.1 µM was found to be 16%, the inhibition at 0.3 µM was determined as 39%, the inhibition at 1 µM was found to be 98% and the inhibition at 3 µM was > 99%.

Take `CC(C)(C)c1ccc(Sc2cc(-c3ccc(OC(F)(F)F)cc3)ccc2CCC(=O)O)cc1` [Compound 517]: the inhibition at 0.1 µM turned out to be 20%, the inhibition at 0.3 µM amounted to 50%, the inhibition at 1 µM is 95% and the inhibition at 3 µM was > 99%.

Consider `CC(C)c1ccc(-c2ccc(/C=C/C(=O)O)c(Oc3ccc(C(C)(C)C)cc3)c2)cc1` [Compound 518], for which the inhibition at 0.1 µM was found to be 14%, the inhibition at 0.3 µM is 54%, the inhibition at 1 µM was > 99% and the inhibition at 3 µM was > 99%.

Regarding `CC(C)c1ccc(-c2ccc(CCC(=O)O)c(Oc3ccc(C(C)(C)C)cc3)c2)cc1` [Compound 519], the inhibition at 0.1 µM came to 1%, the inhibition at 0.3 µM worked out at 19%, the inhibition at 1 µM was > 99% and the inhibition at 3 µM is > 99%.

For the molecule `CC(C)c1ccc(-c2ccc(/C=C/C(=O)O)c(Sc3ccc(C(C)(C)C)cc3)c2)cc1` [Compound 520], the inhibition at 0.1 µM stood at 14%, the inhibition at 0.3 µM is 72%, the inhibition at 1 µM was > 99% and the inhibition at 3 µM is > 99%.

For the molecule `CCC(CC)Oc1ccc(-c2ccc(/C=C/C(=O)O)c(Oc3ccc(C(C)(C)C)cc3)c2)cc1` [Compound 521], the inhibition at 0.1 µM worked out at 25%, the inhibition at 0.3 µM came to 82%, the inhibition at 1 µM is > 99% and the inhibition at 3 µM was > 99%.

With `CCC(CC)Oc1ccc(-c2ccc(CCC(=O)O)c(Oc3ccc(C(C)(C)C)cc3)c2)cc1` [Compound 522], the inhibition at 0.1 µM was found to be 33%, the inhibition at 0.3 µM came out at 71%, the inhibition at 1 µM turned out to be 98% and the inhibition at 3 µM worked out at 98%.

For `CCCCOc1ccc(Oc2cc(-c3ccc(OC(F)(F)F)cc3)ccc2OCC(=O)O)cc1` [Compound 523], the inhibition at 0.1 µM worked out at 11%, the inhibition at 0.3 µM was 15%, the inhibition at 1 µM came to 78% and the inhibition at 3 µM is > 99%.

With `CC(C)(C)c1ccc(Oc2cc(-c3ccc(OC(F)(F)F)cc3)ccc2CCCC(=O)O)cc1` [Compound 527], the inhibition at 0.1 µM turned out to be 6%, the inhibition at 0.3 µM was 36%, the inhibition at 1 µM came out at 98% and the inhibition at 3 µM was > 99%.

`O=C(O)/C=C/c1ccc(-c2ccc(OC(F)(F)F)cc2)cc1Sc1ccccc1` [Compound 528]: the inhibition at 0.1 µM came to 8%, the inhibition at 0.3 µM is 12%, the inhibition at 1 µM stood at 51% and the inhibition at 3 µM came to 97%.

For the molecule `CC(C)(C)c1ccc(Sc2cc(-c3ccc(OC(F)(F)F)cc3)ccc2/C=C\C(=O)O)cc1` [Compound 529], the inhibition at 0.1 µM came to 18%, the inhibition at 0.3 µM came out at 29%, the inhibition at 1 µM is 94% and the inhibition at 3 µM is > 99%.

Regarding `CC(C)(C)c1ccc(Sc2cc(-c3ccc(OC(F)(F)F)cc3)ccc2CC(=O)O)cc1` [Compound 530], the inhibition at 0.1 µM amounted to 17%, the inhibition at 0.3 µM is 21%, the inhibition at 1 µM was 93% and the inhibition at 3 µM is > 99%.

For `CC(C)(C)c1ccc(Oc2cc(Nc3ccc(OC(F)(F)F)cc3)ccc2/C=C/C(=O)O)cc1` [Compound 531], the inhibition at 0.1 µM is 3%, the inhibition at 0.3 µM was determined as 38%, the inhibition at 1 µM worked out at 94% and the inhibition at 3 µM amounted to 96%.

Consider `CC(C)(C)c1ccc(Oc2cc(Nc3ccc(OC(F)(F)F)cc3)ccc2CCC(=O)O)cc1` [Compound 532], for which the inhibition at 0.1 µM was determined as 12%, the inhibition at 0.3 µM is 59%, the inhibition at 1 µM is > 99% and the inhibition at 3 µM was > 99%.

For `CCCCN(CC(=O)O)c1ccc(-c2ccc(OC(F)(F)F)cc2)cc1Oc1ccc(C(C)(C)C)cc1` [Compound 533], the inhibition at 0.1 µM was found to be 25%, the inhibition at 0.3 µM came to 83%, the inhibition at 1 µM stood at 97% and the inhibition at 3 µM worked out at 97%.
